Consider 20 compounds from ChEMBL document CHEMBL3992501, “Synthesis and biological evaluation of salinomycin triazole analogues as anticancer agents” (Eur J Med Chem, 2017).

Some results are limits rather than exact numbers.

Usually IC50 stands for the point on the concentration scale where inhibition reaches its midpoint. Low values mean inhibition by little substance, high ones a need for much substance.

The subject of one assay is MDA-MB-231. Kind of assay: Antiproliferative activity against human MDA-MB-231 cells after 48 hrs by MTT assay. To be noted: MDA-MB-231, 48 h. The class given is functional, cell-based. For orientation: Tetrazolium assays rely on reduction of a dye to a coloured formazan, in cell work by metabolically active cells.
The next assay deals with MCF7. Nature of the assay: Antiproliferative activity against human MCF7 cells after 48 hrs by MTT assay. The format is functional, cell-based. The conditions noted are these: MCF7, 48 h.

Turning to `CC[C@@H](C(=O)[C@@H](C)[C@@H](O)[C@H](C)[C@@H]1O[C@@H]([C@@H](CC)C(=O)OCc2cn(CCCCCC(=O)O)nn2)CC[C@@H]1C)[C@H]1O[C@]2(C=C[C@@H](O)[C@]3(CC[C@@](C)([C@H]4CC[C@](O)(CC)[C@H](C)O4)O3)O2)[C@H](C)C[C@@H]1C`, the IC50 in the assay with MDA-MB-231 was 44.1 µM; with MCF7, 36.3 µM.
`CC[C@@H](C(=O)[C@@H](C)[C@@H](O)[C@H](C)[C@@H]1O[C@@H]([C@@H](CC)C(=O)O)CC[C@@H]1C)[C@H]1O[C@]2(C=C[C@@H](OC(=O)Cn3cc(CCO)nn3)[C@]3(CC[C@@](C)([C@H]4CC[C@](O)(CC)[C@H](C)O4)O3)O2)[C@H](C)C[C@@H]1C`: the IC50 in the assay with MDA-MB-231 was determined as 4.72 µM; in the assay on MCF7, 2.12 µM.
Regarding `CC[C@@H](C(=O)[C@@H](C)[C@@H](O)[C@H](C)[C@@H]1O[C@@H]([C@@H](CC)C(=O)O)CC[C@@H]1C)[C@H]1O[C@]2(C=C[C@@H](OC(=O)Cn3cc(CO)nn3)[C@]3(CC[C@@](C)([C@H]4CC[C@](O)(CC)[C@H](C)O4)O3)O2)[C@H](C)C[C@@H]1C`, the results for the half-maximal inhibitory concentration (IC50) in the assay on MDA-MB-231 and in the assay with MCF7 were 2.72 µM and 3.34 µM, respectively.
For `CC[C@@H](C(=O)[C@@H](C)[C@@H](O)[C@H](C)[C@@H]1O[C@@H]([C@@H](CC)C(=O)OCc2cn(CC(=O)O)nn2)CC[C@@H]1C)[C@H]1O[C@]2(C=C[C@@H](O)[C@]3(CC[C@@](C)([C@H]4CC[C@](O)(CC)[C@H](C)O4)O3)O2)[C@H](C)C[C@@H]1C`, in that order: > 100 µM and 13.7 µM.
In the case of `CC[C@@H](C(=O)[C@@H](C)[C@@H](O)[C@H](C)[C@@H]1O[C@@H]([C@@H](CC)C(=O)O)CC[C@@H]1C)[C@H]1O[C@]2(C=C[C@@H](OC(=O)Cn3cc(-c4cccc(N)c4)nn3)[C@]3(CC[C@@](C)([C@H]4CC[C@](O)(CC)[C@H](C)O4)O3)O2)[C@H](C)C[C@@H]1C`, the half-inhibitory concentration (IC50) in the assay with MDA-MB-231 came to 3.33 µM; in the assay with MCF7 it was 1.65 µM.
As for `CC[C@@H](C(=O)[C@@H](C)[C@@H](O)[C@H](C)[C@@H]1O[C@@H]([C@@H](CC)C(=O)O)CC[C@@H]1C)[C@H]1O[C@]2(C=C[C@@H](OC(=O)Cn3cc(CCCC(=O)O)nn3)[C@]3(CC[C@@](C)([C@H]4CC[C@](O)(CC)[C@H](C)O4)O3)O2)[C@H](C)C[C@@H]1C`, the IC50 in the assay on MDA-MB-231 is 1.94 µM; in the assay on MCF7, 3.66 µM.
Turning to `CC[C@@H](C(=O)[C@@H](C)[C@@H](O)[C@H](C)[C@@H]1O[C@@H]([C@@H](CC)C(=O)O)CC[C@@H]1C)[C@H]1O[C@]2(C=C[C@@H](O)[C@]3(CC[C@@](C)([C@H]4CC[C@](O)(CC)[C@H](C)O4)O3)O2)[C@H](C)C[C@@H]1C` [SALINOMYCIN], the IC50 came to 6.42 µM in the assay on MDA-MB-231 and 2.98 µM in the assay with MCF7.
As for `CC[C@@H](C(=O)[C@@H](C)[C@@H](O)[C@H](C)[C@@H]1O[C@@H]([C@@H](CC)C(=O)OCc2cn(CCCCC(=O)O)nn2)CC[C@@H]1C)[C@H]1O[C@]2(C=C[C@@H](O)[C@]3(CC[C@@](C)([C@H]4CC[C@](O)(CC)[C@H](C)O4)O3)O2)[C@H](C)C[C@@H]1C`, the 50% inhibitory concentration (IC50) in the assay with MDA-MB-231 was 26.2 µM; in the assay on MCF7, 19.9 µM.
Take `CC[C@@H](C(=O)[C@@H](C)[C@@H](O)[C@H](C)[C@@H]1O[C@@H]([C@@H](CC)C(=O)OCc2cn(CCCCCCC(=O)O)nn2)CC[C@@H]1C)[C@H]1O[C@]2(C=C[C@@H](O)[C@]3(CC[C@@](C)([C@H]4CC[C@](O)(CC)[C@H](C)O4)O3)O2)[C@H](C)C[C@@H]1C`: the IC50 in the assay with MDA-MB-231 was determined as 19.6 µM; in the assay on MCF7, 16.3 µM.
`CC[C@@H](C(=O)[C@@H](C)[C@@H](O)[C@H](C)[C@@H]1O[C@@H]([C@@H](CC)C(=O)O)CC[C@@H]1C)[C@H]1O[C@]2(C=C[C@@H](OC(=O)Cn3cc(C(=O)O)nn3)[C@]3(CC[C@@](C)([C@H]4CC[C@](O)(CC)[C@H](C)O4)O3)O2)[C@H](C)C[C@@H]1C`: the IC50 in the assay with MDA-MB-231 was determined as 6.48 µM; in the assay on MCF7, 1.86 µM.
As to `CC[C@@H](C(=O)[C@@H](C)[C@@H](O)[C@H](C)[C@@H]1O[C@@H]([C@@H](CC)C(=O)O)CC[C@@H]1C)[C@H]1O[C@]2(C=C[C@@H](OC(=O)Cn3cc(COCCOCc4cn(CC(=O)O[C@@H]5C=C[C@]6(O[C@H]([C@@H](CC)C(=O)[C@@H](C)[C@@H](O)[C@H](C)[C@@H]7O[C@@H]([C@@H](CC)C(=O)O)CC[C@@H]7C)[C@@H](C)C[C@H]6C)O[C@@]56CC[C@@](C)([C@H]5CC[C@](O)(CC)[C@H](C)O5)O6)nn4)nn3)[C@]3(CC[C@@](C)([C@H]4CC[C@](O)(CC)[C@H](C)O4)O3)O2)[C@H](C)C[C@@H]1C`, the IC50 amounted to 4.06 µM in the assay on MDA-MB-231 and 0.91 µM with MCF7.
As for `CC[C@@H](C(=O)[C@@H](C)[C@@H](O)[C@H](C)[C@@H]1O[C@@H]([C@@H](CC)C(=O)O)CC[C@@H]1C)[C@H]1O[C@]2(C=C[C@@H](OC(=O)Cn3cc(CCC(=O)O)nn3)[C@]3(CC[C@@](C)([C@H]4CC[C@](O)(CC)[C@H](C)O4)O3)O2)[C@H](C)C[C@@H]1C`, the IC50 in the assay with MDA-MB-231 came out at 3.13 µM; in the assay with MCF7, 2.03 µM.
`CC[C@@H](C(=O)[C@@H](C)[C@@H](O)[C@H](C)[C@@H]1O[C@@H]([C@@H](CC)C(=O)O)CC[C@@H]1C)[C@H]1O[C@]2(C=C[C@@H](OC(=O)CCl)[C@]3(CC[C@@](C)([C@H]4CC[C@](O)(CC)[C@H](C)O4)O3)O2)[C@H](C)C[C@@H]1C`: the IC50 with MDA-MB-231 came to 5.83 µM; in the assay on MCF7, 1.88 µM.
On to `CC[C@@H](C(=O)[C@@H](C)[C@@H](O)[C@H](C)[C@@H]1O[C@@H]([C@@H](CC)C(=O)O)CC[C@@H]1C)[C@H]1O[C@]2(C=C[C@@H](OC(=O)Cn3cc(COCCOC(=O)c4cn(CC(=O)O[C@@H]5C=C[C@]6(O[C@H]([C@@H](CC)C(=O)[C@@H](C)[C@@H](O)[C@H](C)[C@@H]7O[C@@H]([C@@H](CC)C(=O)O)CC[C@@H]7C)[C@@H](C)C[C@H]6C)O[C@@]56CC[C@@](C)([C@H]5CC[C@](O)(CC)[C@H](C)O5)O6)nn4)nn3)[C@]3(CC[C@@](C)([C@H]4CC[C@](O)(CC)[C@H](C)O4)O3)O2)[C@H](C)C[C@@H]1C`, for which the IC50 amounted to 6.69 µM in the assay on MDA-MB-231 and 0.6 µM in the assay with MCF7.
As for `CC[C@@H](C(=O)[C@@H](C)[C@@H](O)[C@H](C)[C@@H]1O[C@@H]([C@@H](CC)C(=O)OCc2cn(CCCC(=O)O)nn2)CC[C@@H]1C)[C@H]1O[C@]2(C=C[C@@H](O)[C@]3(CC[C@@](C)([C@H]4CC[C@](O)(CC)[C@H](C)O4)O3)O2)[C@H](C)C[C@@H]1C`, the results for the IC50 with MDA-MB-231 and in the assay with MCF7 were 52.1 µM and 41.2 µM, respectively.
As for `CC[C@@H](C(=O)[C@@H](C)[C@@H](O)[C@H](C)[C@@H]1O[C@@H]([C@@H](CC)C(=O)O)CC[C@@H]1C)[C@H]1O[C@]2(C=C[C@@H](OC(=O)Cn3cc(COCc4cn(CC(=O)O[C@@H]5C=C[C@]6(O[C@H]([C@@H](CC)C(=O)[C@@H](C)[C@@H](O)[C@H](C)[C@@H]7O[C@@H]([C@@H](CC)C(=O)O)CC[C@@H]7C)[C@@H](C)C[C@H]6C)O[C@@]56CC[C@@](C)([C@H]5CC[C@](O)(CC)[C@H](C)O5)O6)nn4)nn3)[C@]3(CC[C@@](C)([C@H]4CC[C@](O)(CC)[C@H](C)O4)O3)O2)[C@H](C)C[C@@H]1C`, the half-inhibitory concentration (IC50) in the assay with MDA-MB-231 worked out at 4.66 µM; in the assay on MCF7, 0.74 µM.
For `CC[C@@H](C(=O)[C@@H](C)[C@@H](O)[C@H](C)[C@@H]1O[C@@H]([C@@H](CC)C(=O)OCc2cn(CCC(=O)O)nn2)CC[C@@H]1C)[C@H]1O[C@]2(C=C[C@@H](O)[C@]3(CC[C@@](C)([C@H]4CC[C@](O)(CC)[C@H](C)O4)O3)O2)[C@H](C)C[C@@H]1C`, in that order: 87.4 µM and 37.3 µM.
The corresponding values for `CC[C@@H](C(=O)[C@@H](C)[C@@H](O)[C@H](C)[C@@H]1O[C@@H]([C@@H](CC)C(=O)OCc2cn(CCCCCCCCCCC(=O)O)nn2)CC[C@@H]1C)[C@H]1O[C@]2(C=C[C@@H](O)[C@]3(CC[C@@](C)([C@H]4CC[C@](O)(CC)[C@H](C)O4)O3)O2)[C@H](C)C[C@@H]1C` are 4.31 µM and 3.64 µM.
With `CC[C@@H](C(=O)[C@@H](C)[C@@H](O)[C@H](C)[C@@H]1O[C@@H]([C@@H](CC)C(=O)O)CC[C@@H]1C)[C@H]1O[C@]2(C=C[C@@H](OC(=O)Cn3cc(CCOC(=O)c4cn(CC(=O)O[C@@H]5C=C[C@]6(O[C@H]([C@@H](CC)C(=O)[C@@H](C)[C@@H](O)[C@H](C)[C@@H]7O[C@@H]([C@@H](CC)C(=O)O)CC[C@@H]7C)[C@@H](C)C[C@H]6C)O[C@@]56CC[C@@](C)([C@H]5CC[C@](O)(CC)[C@H](C)O5)O6)nn4)nn3)[C@]3(CC[C@@](C)([C@H]4CC[C@](O)(CC)[C@H](C)O4)O3)O2)[C@H](C)C[C@@H]1C`, the concentration for half-maximal inhibition (IC50) with MDA-MB-231 came out at 9.01 µM; in the assay with MCF7, 0.71 µM.
For `CC[C@@H](C(=O)[C@@H](C)[C@@H](O)[C@H](C)[C@@H]1O[C@@H]([C@@H](CC)C(=O)O)CC[C@@H]1C)[C@H]1O[C@]2(C=C[C@@H](OC(=O)Cn3cc(COCCO)nn3)[C@]3(CC[C@@](C)([C@H]4CC[C@](O)(CC)[C@H](C)O4)O3)O2)[C@H](C)C[C@@H]1C`, in that order: 4.09 µM and 1.23 µM.
